# Experimental data: patent US20080090903A1, “PHENYLALKYL CARBAMATE COMPOSITIONS” (priority 2006, published 2008)
# Assay: Forced degradation of the phenylalkyl carbamate as a function of pH (pH 9 carbonate buffer, LC-MS)
# Format: physicochemical
# Conditions: room temperature
# Experimental: Under certain conditions of elevated temperature and relative humidity, such as, 25° C. and 40% RH, 25° C. and 60% RH, 25° C. and 80% RH, 45° C. and 20% RH, 45° C. and 40% RH, 45° C. and 60% RH, 45° C. and 80% RH, or 40° C. and75% RH and the like, an exposed compound or composition may be subject to degradation.
# As shown in Scheme A, a sample of Compound A1, the carbamic acid (2R)-2-(2-chloro-phenyl)-2-hydroxy-ethyl ester compound of formula (Ib), was dissolved in a pH 9 carbonate buffer.
# The sample was analyzed by LC-MS under reverse phase conditions using positive ion ESI and APCI detection.
structure (smiles),measurement,value
"NC(=O)OC[C@H](O)c1ccccc1Cl [Compound A1, carbamic acid (2R)-2-(2-chloro-phenyl)-2-hydroxy-ethyl ester]",Degradation in solution,degradation products had formed in appreciable amounts
